Converted amounts (≈) assume the structure as drawn.
tested on: not listed separately; assay: Drug degradation assessed as 2-hydroxyethylthio-2,4-dinitrobenzene production at pH 7.4 after 6 hrs in the presence of 2-mercaptoethanol; format: physicochemical; conditions: buffer, pH 7.4, 6 h; call rule not given here

In the case of `COc1ccc(NS(=O)(=O)c2ccc([N+](=O)[O-])cc2[N+](=O)[O-])cc1`, the Drug degradation is reported as “Active”.

tested on: Mycobacterium tuberculosis; assay: Antimycobacterial activity against Mycobacterium tuberculosis H37Rv after 28 days; format: functional; conditions: 672 h

Going from `CC[C@@H](CO)NCCN[C@@H](CC)CO` [ETHAMBUTOL] to `O=[N+]([O-])c1ccc(S(=O)(=O)NCCc2ccccc2)c([N+](=O)[O-])c1`, the MIC falls from 1.56 µg/mL (≈ 7.64 µM) to 0.4 µg/mL (≈ 1.14 µM) (3.9-fold).

`CN(c1ccccc1)S(=O)(=O)c1ccc([N+](=O)[O-])cc1[N+](=O)[O-]` and `CN(CCc1ccccc1)S(=O)(=O)c1ccc([N+](=O)[O-])cc1[N+](=O)[O-]` are the same in MIC: 0.78 µg/mL (≈ 2.31 µM) for the first, 0.78 µg/mL (≈ 2.13 µM) for the second.

`C[C@H](NS(=O)(=O)c1ccc([N+](=O)[O-])cc1[N+](=O)[O-])c1ccccc1` and `C[C@@H](NS(=O)(=O)c1ccc([N+](=O)[O-])cc1[N+](=O)[O-])c1ccccc1` are the same in MIC: 1.56 µg/mL (≈ 4.44 µM) for the first, 1.56 µg/mL (≈ 4.44 µM) for the second.

First: NNC(=O)c1ccncc1 [ISONIAZID]
Second: NC(=O)c1cnccn1 [PYRAZINAMIDE]
The MIC of the first is 120-fold lower: 0.05 µg/mL (≈ 0.365 µM) for the first, 6.25 µg/mL (≈ 50.8 µM) for the second.

First: O=[N+]([O-])c1ccc(S(=O)(=O)NCc2ccc(Cl)cc2)c([N+](=O)[O-])c1
Second: COc1ccc(CNS(=O)(=O)c2ccc([N+](=O)[O-])cc2[N+](=O)[O-])cc1
The MIC of the first is 1.6-fold higher: 0.4 µg/mL (≈ 1.08 µM) for the first, 0.25 µg/mL (≈ 0.681 µM) for the second.

Compared with `N#Cc1ccc(NS(=O)(=O)c2ccc([N+](=O)[O-])cc2[N+](=O)[O-])cc1`, `O=[N+]([O-])c1ccc(S(=O)(=O)Nc2ccc(F)cc2)c([N+](=O)[O-])c1` is lower in MIC: > 50 µg/mL for the first, 6.25 µg/mL (≈ 18.3 µM) for the second.

First: O=[N+]([O-])c1ccc(S(=O)(=O)NCc2ccccc2C(F)(F)F)c([N+](=O)[O-])c1
Second: O=[N+]([O-])c1ccc(S(=O)(=O)NCc2ccc(C(F)(F)F)cc2)c([N+](=O)[O-])c1
The MIC of the first is 3.9-fold higher: 1.56 µg/mL (≈ 3.85 µM) for the first, 0.4 µg/mL (≈ 0.987 µM) for the second.

Compared with `O=[N+]([O-])c1ccc(S(=O)(=O)N(CCc2ccccc2)Cc2ccccc2)c([N+](=O)[O-])c1`, `O=[N+]([O-])c1ccc(S(=O)(=O)N(Cc2ccccc2)c2ccccc2)c([N+](=O)[O-])c1` is 2-fold lower in MIC: 3.13 µg/mL (≈ 7.09 µM) for the first, 1.56 µg/mL (≈ 3.77 µM) for the second.

Molecule `COc1ccccc1NS(=O)(=O)c1ccc([N+](=O)[O-])cc1[N+](=O)[O-]` has an MIC of 3.13 µg/mL (≈ 8.86 µM).

tested on: not listed separately; assay: Drug degradation assessed as decrease in compound level at pH 7.4 after 30 mins in the presence of 2-mercaptoethanol; format: physicochemical; conditions: buffer, pH 7.4, 0.5 h

In the case of `COc1ccc(NS(=O)(=O)c2ccc([N+](=O)[O-])cc2[N+](=O)[O-])cc1`, the Drug degradation is reported as “Active”.
